Patent US12692254B2, “Benzimidazole inhibitors of PAD enzymes” (BRISTOL-MYERS SQUIBB COMPANY, priority 2018, dated 2026)

What follows are compounds tested against human PAD4 (hPAD4) (Homo sapiens, UniProt Q9UM07) (assay: RFMS human PAD4 functional assay (rapid-fire mass spectrum)). Conditions: 5 nM hPAD4 enzyme, 250 μM BAEE, 50 μM Calcium; 30 min preincubation, 90 min reaction at 37° C.
Assay type: biochemical
Outline: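 PAD4 (10 nM) preincubated 30 min with compound (top final 50 μM), then BAEE substrate added in pH 7.5 HEPES buffer with DTT, 50 μM calcium, TPEN; 90 min at 37° C. After TCA quench, citrulline derivatized with phenyl glyoxal (4 mM final, 30 min, 37° C) and quantified by RapidFire MS against internal standard.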

Chain of human PAD4 (hPAD4) (Q9UM07 whole entry): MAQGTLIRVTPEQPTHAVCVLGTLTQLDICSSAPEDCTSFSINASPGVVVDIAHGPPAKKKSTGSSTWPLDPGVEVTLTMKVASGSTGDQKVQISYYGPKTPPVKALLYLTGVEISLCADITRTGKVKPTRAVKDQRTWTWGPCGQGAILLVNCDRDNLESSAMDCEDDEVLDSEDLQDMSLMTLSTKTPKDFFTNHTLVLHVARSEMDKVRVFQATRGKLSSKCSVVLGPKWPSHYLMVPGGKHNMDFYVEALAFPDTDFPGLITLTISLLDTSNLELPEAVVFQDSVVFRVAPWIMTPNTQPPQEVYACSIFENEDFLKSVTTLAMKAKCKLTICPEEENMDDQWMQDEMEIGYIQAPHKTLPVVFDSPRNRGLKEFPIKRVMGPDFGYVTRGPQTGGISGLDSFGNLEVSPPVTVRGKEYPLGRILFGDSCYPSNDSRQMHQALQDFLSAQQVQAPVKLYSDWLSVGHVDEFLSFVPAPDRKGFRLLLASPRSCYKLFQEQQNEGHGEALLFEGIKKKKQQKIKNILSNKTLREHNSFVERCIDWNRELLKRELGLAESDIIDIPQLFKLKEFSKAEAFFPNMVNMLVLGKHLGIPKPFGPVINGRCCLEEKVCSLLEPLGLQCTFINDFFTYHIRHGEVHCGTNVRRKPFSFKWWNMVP

| SMILES | IC50 [µM] |
| --- | --- |
| COc1cc(C(=O)N2CC3CCC2[C@@H]3N)cc2nc(-c3cc4cccnc4n3CC3CC3)n(CC3CC(C(N)=O)C3)c12 (stereo partly drawn) [Example 475, 3-({5-[(7R)-7-amino-2-azabicyclo[2.2.1]heptane-2-carbonyl]-2-[1-(cyclopropylmethyl)-1H-pyrrolo[2,3-b]pyridin-2-yl]-7-methoxy-1H-1,3-benzodiazol-1-yl}methyl)cyclobutane-1-carboxamide] | 0.18 |
| COc1cc(C(=O)N2C[C@H]3CC[C@@H]2[C@@H]3N)cc2nc(-c3cc4cccnc4n3CC3CC3)n(CC3CN(C(=O)CNC(C)=O)C3)c12 [Example 186, N-{2-[3-({5-[(1R,4R,7R)-7-amino-2-azabicyclo[2.2.1]heptane-2-carbonyl]-2-[1-(cyclopropylmethyl)-1H-pyrrolo[2,3-b]pyridin-2-yl]-7-methoxy-1H-1,3-benzodiazol-1-yl}methyl)azetidin-1-yl]-2-oxoethyl}acetamide] | 0.316 |
| COc1cc(C(=O)N2C[C@H]3CC[C@@H]2[C@@H]3N)cc2nc(-c3cc4cccnc4n3CC3CC3)n(C3CN(C(=O)c4cnc(NCC(C)(C)O)nc4)C3)c12 [Example 185, 1-{[5-(3-{5-[(1R,4R,7R)-7-amino-2-azabicyclo[2.2.1]heptane-2-carbonyl]-2-[1-(cyclopropylmethyl)-1H-pyrrolo[2,3-b]pyridin-2-yl]-7-methoxy-1H-1,3-benzodiazol-1-yl}azetidine-1-carbonyl)pyrimidin-2-yl]amino}-2-methylpropan-2-ol] | 0.316 |
| COc1cc(C(=O)N2C[C@H]3CC[C@@H]2[C@@H]3N)cc2nc(-c3cc4cccnc4n3CC3CC3)n(CC3CN(c4cncc(C#N)c4)C3)c12 [Example 7, 5-[3-({5-[(1R,4R,7R)-7-amino-2-azabicyclo[2.2.1]heptane-2-carbonyl]-2-[1-(cyclopropylmethyl)-1H-pyrrolo[2,3-b]pyridin-2-yl]-7-methoxy-1H-1,3-benzodiazol-1-yl}methyl)azetidin-1-yl]pyridine-3-carbonitrile] | 0.094 |
| COc1cc(C(=O)N2C[C@H]3CC[C@@H]2[C@@H]3N)cc2nc(-c3cc4cccnc4n3CC3CC3)n(CC3CN(c4cncnc4C#N)C3)c12 [Example 46, 5-[3-({5-[(1R,4R,7R)-7-amino-2-azabicyclo[2.2.1]heptane-2-carbonyl]-2-[1-(cyclopropylmethyl)-1H-pyrrolo[2,3-b]pyridin-2-yl]-7-methoxy-1H-1,3-benzodiazol-1-yl}methyl)azetidin-1-yl]pyrimidine-4-carbonitrile] | 0.118 |
| COc1cc(C(=O)N2CC3CCC2[C@@H]3N)cc2nc(-c3cc4cccnc4n3CC3CC3)n([C@H]3C[C@H](NS(C)(=O)=O)C3)c12 (stereo partly drawn) [Example 298, N-[(1r,3r)-3-{5-[(1R,4R,7R)-7-amino-2-azabicyclo[2.2.1]heptane-2-carbonyl]-2-[1-(cyclopropylmethyl)-1H-pyrrolo[2,3-b]pyridin-2-yl]-7-methoxy-1H-1,3-benzodiazol-1-yl}cyclobutyl]methanesulfonamide] | 0.331 |
| COc1cc(C(=O)N2C[C@H]3CC[C@@H]2[C@@H]3N)cc2nc(-c3cc4cccnc4n3CC3CC3)n(CC3CN(c4ccncc4)C3)c12 [Example 57, (1R,4R,7R)-2-{2-[1-(cyclopropylmethyl)-1H-pyrrolo[2,3-b]pyridin-2-yl]-7-methoxy-1-{[1-(pyridin-4-yl)azetidin-3-yl]methyl}-1H-1,3-benzodiazole-5-carbonyl}-2-azabicyclo[2.2.1]heptan-7-amine] | 0.168 |
| COc1cc(C(=O)N2CC3CCC2[C@@H]3N)cc2nc(-c3cc4cccnc4n3CC3CC3)n(C3CN(S(=O)(=O)c4ccc(C#N)cc4)C3)c12 (stereo partly drawn) [Example 339, 4-[(3-{5-[(1R,4R,7R)-7-amino-2-azabicyclo[2.2.1]heptane-2-carbonyl]-2-[1-(cyclopropylmethyl)-1H-pyrrolo[2,3-b]pyridin-2-yl]-7-methoxy-1H-1,3-benzodiazo1-1-yl}azetidin-1-yl)sulfonyl]benzonitrile] | 0.536 |
| COc1cc(C(=O)N2C[C@H]3CC[C@@H]2[C@@H]3N)cc2nc(-c3cccn3CC3CC3)n(CC3CN(c4ccnc(C#N)n4)C3)c12 [Example 311, 4-[3-({5-[(1R,4R,7R)-7-amino-2-azabicyclo[2.2.1]heptane-2-carbonyl]-2-[1-(cyclopropylmethyl)-1H-pyrrol-2-yl]-7-methoxy-1H-1,3-benzodiazol-1-yl}methyl)azetidin-1-yl]pyrimidine-2-carbonitrile] | 0.134 |
| COc1nccnc1N1CC(Cn2c(-c3cc4cccnc4n3CC3CC3)nc3cc(C(=O)N4C[C@H]5CC[C@@H]4[C@@H]5N)cc(OC)c32)C1 [Example 43, (1R,4R,7R)-2-{2-[1-(cyclopropylmethyl)-1H-pyrrolo[2,3-b]pyridin-2-yl]-7-methoxy-1-{[1-(3-methoxypyrazin-2-yl)azetidin-3-yl]methyl}-1H-1,3-benzodiazole-5-carbonyl}-2-azabicyclo[2.2.1]heptan-7-amine] | 0.103 |

Compounds with a lower IC50, results first:

| IC50 [µM] | SMILES |
| --- | --- |
| 0.066 | COc1cc(C(=O)N2CC3CCC2[C@@H]3N)cc2nc(-c3cc4ccccc4n3CC3CC3)n(Cc3cnn(-c4ncccn4)c3)c12 (stereo partly drawn) [Example 402, (7R)-2-{2-[1-(cyclopropylmethyl)-1H-indol-2-yl]-7-methoxy-1-{[1-(pyrimidin-2-yl)-1H-pyrazol-4-yl]methyl}-1H-1,3-benzodiazole-5-carbonyl}-2-azabicyclo[2.2.1]heptan-7-amine] |
| 0.046 | CCn1cc(Cn2c(-c3cc4ccccc4n3CC3CC3)nc3cc(C(=O)N4C[C@H](N)C[C@@H](F)C4)cc(OC)c32)cn1 [Example 487, (3R,5R)-1-{2-[1-(cyclopropylmethyl)-1H-indol-2-yl]-1-[(1-ethyl-1H-pyrazol-4-yl)methyl]-7-methoxy-1H-1,3-benzodiazole-5-carbonyl}-5-fluoropiperidin-3-amine] |
| 0.02 | N#Cc1ccc(C(=O)N2CC(Cn3c(-c4cc5ccccc5n4CC4CC4)nc4cc(C(=O)N5C[C@H]6CC[C@@H]5[C@@H]6N)cc(Cl)c43)C2)cc1 [Example 150, 4-[3-({5-[(1R,4R,7R)-7-amino-2-azabicyclo[2.2.1]heptane-2-carbonyl]-7-chloro-2-[1-(cyclopropylmethyl)-1H-indol-2-yl]-1H-1,3-benzodiazol-1-yl}methyl)azetidine-1-carbonyl]benzonitrile] |
| 0.032 | COc1cc(C(=O)N2CC3CCC2[C@@H]3N)cc2nc(-c3cc4cccnc4n3CC3CC3)n(CC3CN(C(=O)[C@H]4C[C@@H]4C)C3)c12 (stereo partly drawn) [Example 106, (1R,4R,7R)-2-{2-[1-(cyclopropylmethyl)-1H-pyrrolo[2,3-b]pyridin-2-yl]-7-methoxy-1-({1-[(1S,2S)-2-methylcyclopropanecarbonyl]aze-tidin-3-yl}methyl)-1H-1,3-benzodiazole-5-carbonyl}-2-azabicyclo[2.2.1]heptan-7-amine] |
| 0.039 | COc1cc(C(=O)N2C[C@H]3CC[C@@H]2[C@@H]3N)cc2nc(-c3cc4ccccc4n3CC3CC3)n(CC3CN(c4ccnc(C)n4)C3)c12 [Example 66, (1R,4R,7R)-2-{2-[1-(cyclopropylmethyl)-1H-indol-2-yl]-7-methoxy-1-{[1-(2-methylpyrimidin-4-yl)azetidin-3-yl]methyl}-1H-1,3-benzodiazole-5-carbonyl}-2-azabicyclo[2.2.1]heptan-7-amine] |
| 0.018 | COc1cc(C(=O)N2CC3CCC2C3N)cc2nc(-c3cc4cccnc4n3CC3CC3)n(CC3CCN(C(=O)c4ccc(C#N)cc4)C3)c12 [Example 201, 4-[(3S)-3-({5-[(1R,4R,7R)-7-amino-2-azabicyc1o[2.2.1]heptane-2-carbonyl]-2-[1-(cyclopropylmethyl)-1H-pyrrolo[2,3-b]pyridin-2-yl]-7-methoxy-1H-1,3-benzodiazol-1-yl}methyl)pyrrolidine-1-carbonyl]benzonitrile] |
| 0.024 | COc1cc(C(=O)N2CC3CCC2[C@@H]3N)cc2nc(-c3cc4cccnc4n3CC3CC3)n(CC3CN(C(=O)c4cc(F)cc(F)c4)C3)c12 (stereo partly drawn) [Example 427, (7R)-2-{2-[1-(cyclopropylmethyl)-1H-pyrrolo[2,3-b]pyridin-2-yl]-1-{[1-(3,5-difluorobenzoyl)azetidin-3-yl]methyl}-7-methoxy-1H-1,3-benzodiazole-5-carbonyl}-2-azabicyclo[2.2.1]heptan-7-amine] |
| 0.037 | COc1cc(C(=O)N2CC3CCC2[C@@H]3N)cc2nc(-c3cc4cccnc4n3CC3CC3)n(Cc3cnn(-c4cc(F)cnc4O)c3)c12 (stereo partly drawn) [Example 380, 3-[4-({5-[(7R)-7-amino-2-azabicyclo[2.2.1]heptane-2-carbonyl]-2-[1-(cyclopropylmethyl)-1H-pyrrolo[2,3-b]pyridin-2-yl]-7-methoxy-1H-1,3-benzodiazol-1-yl)methyl}-1H-pyrazol-1-yl]-5-fluoropyridin-2-ol] |
| 0.023 | COc1cccc(C(=O)N2CC(Cn3c(-c4cc5ccccc5n4CC4CC4)nc4cc(C(=O)N5C[C@H]6CC[C@@H]5[C@@H]6N)cc(OC)c43)C2)c1 [Example 158, (1R,4R,7R)-2-{2-[1-(cyclopropylmethyl)-1H-indol-2-yl]-7-methoxy-1-{[1-(3-methoxybenzoyl)azetidin-3-yl]methyl}-1H-1,3-benzodiazole-5-carbonyl}-2-azabicyclo[2.2.1]heptan-7-amine] |
| 0.026 | COc1cc(C(=O)N2C[C@H]3CC[C@@H]2[C@@H]3N)cc2nc(-c3cc4ccccc4n3CC3CC3)n(CC3CN(C(=O)c4ccc(C#N)cc4F)C3)c12 [Example 163, 4-[3-({5-[(1R,4R,7R)-7-amino-2-azabicyclo[2.2.1]heptane-2-carbonyl]-2-[1-(cyclopropylmethyl)-1H-indol-2-yl]-7-methoxy-1H-1,3-benzodiazol-1-yl}methyl)azetidine-1-carbonyl]-3-fluorobenzonitrile] |
| 0.055 | COc1cc(C(=O)N2CC3CCC2[C@@H]3N)cc2nc(-c3cc4ccccc4n3CC3CC3)n(CC3CC(=O)N(C)C3)c12 (mixture of isomers) [Example 262, 4-({5-[(1R,4R,7R)-7-amino-2-azabicyclo[2.2.1]heptane-2-carbonyl]-2-[1-(cyclopropylmethy!)-1H-indol-2-yl]-7-methoxy-1H-1,3-benzodiazol-1-yl}methyl)-1-methylpyrrolidin-2-one] |
